From ChEMBL document CHEMBL1909046, “DrugMatrix in vitro pharmacology data”

Key:
[1] = DRUGMATRIX: Tumor Necrosis Factor (TNF), Non-Selective radioligand binding (ligand: [125I] TNF-alpha); format: cell membranes, Membrane; conditions: u-937; Not Active = under 50% inhibition at 10 µM
[2] = biological target: Kappa-type opioid receptor (Homo sapiens, UniProt P41145); assay: DRUGMATRIX: Opiate kappa (OP2, KOP) radioligand binding (ligand: [3H] Diprenorphine); format: cell membranes, HEK293, Membrane; conditions: hek293; Not Active = under 50% inhibition at 10 µM
[3] = biological target: Mu-type opioid receptor (Homo sapiens, UniProt P35372); assay: DRUGMATRIX: Opiate mu (OP3, MOP) radioligand binding (ligand: [3H] Diprenorphine); format: cell membranes, CHO-K1, Membrane; conditions: cho-k1; Not Active = under 50% inhibition at 10 µM
[4] = biological target: T1, Neutrophil elastase (Homo sapiens, UniProt P08246); format: tissue-based;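 note: inhibition of neutrophil elastase enzyme activity, measured with a p-nitroanilide-linked peptide substrate; in other assays of this panel Not Active means under 50% inhibition at 10 µM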
T1 sequence (P08246 whole entry): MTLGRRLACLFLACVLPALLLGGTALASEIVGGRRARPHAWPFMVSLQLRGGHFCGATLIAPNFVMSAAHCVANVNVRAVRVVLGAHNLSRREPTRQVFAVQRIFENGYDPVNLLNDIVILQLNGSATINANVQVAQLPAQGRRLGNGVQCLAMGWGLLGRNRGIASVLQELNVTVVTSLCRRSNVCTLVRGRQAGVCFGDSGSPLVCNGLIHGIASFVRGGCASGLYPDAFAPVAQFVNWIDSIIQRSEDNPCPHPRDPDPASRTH

[5] = biological target: Mitogen-activated protein kinase 14 (Homo sapiens, UniProt Q16539); parameters: species or system Escherichia coli;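 note: inhibition of p38alpha enzyme activity in a biochemical kinase assay, with myelin basic protein serving as substrate; in other assays of this panel Not Active means under 50% inhibition at 10 µM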
[6] = biological target: Epidermal growth factor receptor (Homo sapiens, UniProt P00533); assay: DRUGMATRIX: Protein Tyrosine Kinase, EGF Receptor enzyme inhibition (substrate: Poly(Glu:Tyr)); format: cell-based, Insect cells; conditions: insect cells; Not Active = under 50% inhibition at 10 µM
[7] = biological target: Receptor tyrosine-protein kinase erbB-2 (Homo sapiens, UniProt P04626); assay: biochemical; format: cell-based, Insect cells; conditions: insect cells;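 note: inhibition of HER2 kinase enzyme activity, measured with Poly(Glu:Tyr) as the phosphorylation substrate; in other assays of this panel Not Active means under 50% inhibition at 10 µM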
Chain of Receptor tyrosine-protein kinase erbB-2 (P04626 whole entry): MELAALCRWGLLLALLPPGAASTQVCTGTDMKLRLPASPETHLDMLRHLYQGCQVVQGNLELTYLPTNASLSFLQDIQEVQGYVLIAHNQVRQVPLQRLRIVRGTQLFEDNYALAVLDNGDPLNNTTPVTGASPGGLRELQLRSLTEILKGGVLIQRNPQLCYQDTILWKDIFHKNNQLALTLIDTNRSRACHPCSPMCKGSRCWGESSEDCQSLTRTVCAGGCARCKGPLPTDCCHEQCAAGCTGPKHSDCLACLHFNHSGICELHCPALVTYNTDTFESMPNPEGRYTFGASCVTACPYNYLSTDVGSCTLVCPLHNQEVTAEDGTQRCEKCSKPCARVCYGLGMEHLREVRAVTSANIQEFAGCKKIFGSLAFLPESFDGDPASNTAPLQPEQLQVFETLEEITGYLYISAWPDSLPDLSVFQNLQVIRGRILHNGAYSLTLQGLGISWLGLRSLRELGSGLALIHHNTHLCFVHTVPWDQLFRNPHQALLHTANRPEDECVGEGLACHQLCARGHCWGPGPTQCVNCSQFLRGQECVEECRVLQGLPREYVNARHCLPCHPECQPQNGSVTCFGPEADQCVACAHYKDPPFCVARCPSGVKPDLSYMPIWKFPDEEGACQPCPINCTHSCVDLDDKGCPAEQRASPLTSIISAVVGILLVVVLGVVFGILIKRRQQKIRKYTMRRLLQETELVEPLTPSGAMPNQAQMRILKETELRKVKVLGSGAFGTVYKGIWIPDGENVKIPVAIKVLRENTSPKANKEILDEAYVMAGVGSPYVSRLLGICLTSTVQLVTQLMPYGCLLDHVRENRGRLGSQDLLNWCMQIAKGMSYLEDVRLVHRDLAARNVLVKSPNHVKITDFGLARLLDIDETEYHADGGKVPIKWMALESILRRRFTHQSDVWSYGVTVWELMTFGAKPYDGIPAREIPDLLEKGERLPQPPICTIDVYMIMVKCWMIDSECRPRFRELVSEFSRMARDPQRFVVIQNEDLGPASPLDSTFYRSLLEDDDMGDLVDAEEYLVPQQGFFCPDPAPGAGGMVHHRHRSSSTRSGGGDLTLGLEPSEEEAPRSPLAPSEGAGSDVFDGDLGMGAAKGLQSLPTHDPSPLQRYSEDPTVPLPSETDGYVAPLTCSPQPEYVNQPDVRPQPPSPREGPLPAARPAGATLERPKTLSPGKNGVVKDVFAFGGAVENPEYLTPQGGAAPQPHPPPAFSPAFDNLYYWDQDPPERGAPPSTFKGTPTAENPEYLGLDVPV

Chain of Kappa-type opioid receptor (P41145 whole entry): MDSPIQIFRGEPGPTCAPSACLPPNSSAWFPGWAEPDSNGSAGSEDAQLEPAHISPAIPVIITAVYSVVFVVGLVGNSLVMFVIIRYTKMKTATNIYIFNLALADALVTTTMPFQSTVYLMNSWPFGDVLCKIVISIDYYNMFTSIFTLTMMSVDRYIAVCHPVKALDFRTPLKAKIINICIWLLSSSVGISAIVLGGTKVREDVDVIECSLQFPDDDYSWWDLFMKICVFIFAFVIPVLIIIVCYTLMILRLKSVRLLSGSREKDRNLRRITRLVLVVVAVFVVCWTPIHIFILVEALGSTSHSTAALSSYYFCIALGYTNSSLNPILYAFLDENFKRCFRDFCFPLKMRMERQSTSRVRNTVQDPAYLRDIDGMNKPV
Chain of Mu-type opioid receptor (P35372 whole entry): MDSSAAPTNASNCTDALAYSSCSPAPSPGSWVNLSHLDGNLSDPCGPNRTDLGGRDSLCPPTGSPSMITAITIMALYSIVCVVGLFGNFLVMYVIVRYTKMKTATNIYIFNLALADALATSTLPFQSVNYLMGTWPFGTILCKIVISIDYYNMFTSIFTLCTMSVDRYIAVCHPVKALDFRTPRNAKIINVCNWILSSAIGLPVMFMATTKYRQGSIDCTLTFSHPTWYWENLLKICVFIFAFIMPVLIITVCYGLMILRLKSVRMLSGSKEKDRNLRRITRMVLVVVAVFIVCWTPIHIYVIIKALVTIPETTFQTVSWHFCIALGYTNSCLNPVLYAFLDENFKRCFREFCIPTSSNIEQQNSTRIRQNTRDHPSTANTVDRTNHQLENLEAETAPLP
Chain of Epidermal growth factor receptor (P00533 whole entry): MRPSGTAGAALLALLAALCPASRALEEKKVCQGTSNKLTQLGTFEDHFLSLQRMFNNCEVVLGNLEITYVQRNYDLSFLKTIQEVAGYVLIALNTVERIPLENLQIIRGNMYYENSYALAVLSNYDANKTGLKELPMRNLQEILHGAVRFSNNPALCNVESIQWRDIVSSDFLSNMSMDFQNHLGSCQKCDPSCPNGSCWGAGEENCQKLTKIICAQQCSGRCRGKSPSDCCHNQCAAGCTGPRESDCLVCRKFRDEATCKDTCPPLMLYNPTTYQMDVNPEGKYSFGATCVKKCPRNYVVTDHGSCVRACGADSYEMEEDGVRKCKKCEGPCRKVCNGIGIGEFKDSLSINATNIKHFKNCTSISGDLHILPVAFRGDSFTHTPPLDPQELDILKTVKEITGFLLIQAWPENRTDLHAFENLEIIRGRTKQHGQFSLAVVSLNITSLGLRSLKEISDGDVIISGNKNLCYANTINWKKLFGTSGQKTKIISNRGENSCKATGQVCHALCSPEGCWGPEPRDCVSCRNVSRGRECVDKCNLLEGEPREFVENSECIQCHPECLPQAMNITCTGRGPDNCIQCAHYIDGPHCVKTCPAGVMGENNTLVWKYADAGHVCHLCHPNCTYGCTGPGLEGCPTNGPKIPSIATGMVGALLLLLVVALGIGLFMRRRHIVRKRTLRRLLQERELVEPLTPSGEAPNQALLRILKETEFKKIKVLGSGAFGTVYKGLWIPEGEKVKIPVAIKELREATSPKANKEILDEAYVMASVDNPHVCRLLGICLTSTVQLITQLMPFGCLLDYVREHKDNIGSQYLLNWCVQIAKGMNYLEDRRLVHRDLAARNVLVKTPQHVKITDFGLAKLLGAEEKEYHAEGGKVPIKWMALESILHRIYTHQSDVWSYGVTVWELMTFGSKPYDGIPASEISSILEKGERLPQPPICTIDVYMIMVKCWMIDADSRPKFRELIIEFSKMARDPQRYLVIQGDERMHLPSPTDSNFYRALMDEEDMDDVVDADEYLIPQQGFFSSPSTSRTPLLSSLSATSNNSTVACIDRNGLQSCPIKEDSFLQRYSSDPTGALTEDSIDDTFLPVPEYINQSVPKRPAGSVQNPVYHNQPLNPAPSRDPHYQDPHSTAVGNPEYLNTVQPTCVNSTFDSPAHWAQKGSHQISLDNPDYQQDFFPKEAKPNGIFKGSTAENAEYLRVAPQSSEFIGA
Chain of Mitogen-activated protein kinase 14 (Q16539 whole entry): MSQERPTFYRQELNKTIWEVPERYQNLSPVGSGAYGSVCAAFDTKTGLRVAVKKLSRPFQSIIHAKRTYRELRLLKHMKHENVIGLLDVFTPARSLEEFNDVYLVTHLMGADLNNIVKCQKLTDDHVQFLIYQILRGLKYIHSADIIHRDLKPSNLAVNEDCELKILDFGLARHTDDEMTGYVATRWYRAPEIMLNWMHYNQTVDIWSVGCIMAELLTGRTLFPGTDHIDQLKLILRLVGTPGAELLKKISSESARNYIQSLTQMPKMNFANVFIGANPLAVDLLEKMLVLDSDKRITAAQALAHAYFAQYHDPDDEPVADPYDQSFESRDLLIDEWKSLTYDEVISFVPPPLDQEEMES

Cc1cccc(C)c1OCC(C)N (configuration not stated) [MEXILETINE]
Not Active: IC50 [1] | Ki [1] | IC50 [2] | IC50 [3] | IC50 [4] | IC50 [5] | IC50 [6] | IC50 [7]

COc1c2occc2cc2ccc(=O)oc12 [METHOXSALEN]
Not Active: IC50 [1] | Ki [1] | IC50 [2] | IC50 [3] | IC50 [4] | IC50 [5] | IC50 [6] | IC50 [7]

C[C@H]1C[C@@H]2[C@H]([C@@H](O)C[C@@]3(C)[C@H]2CC[C@]3(O)C(=O)CO)[C@@]2(C)C=CC(=O)C=C12 [METHYLPREDNISOLONE]
Not Active: IC50 [1] | Ki [1] | IC50 [2] | IC50 [3] | IC50 [4] | IC50 [5] | IC50 [6] | IC50 [7]

COc1cc2nc(N3CCN(C(=O)C4CCCO4)CC3)nc(N)c2cc1OC (configuration not stated) [TERAZOSIN]
Not Active: IC50 [1] | Ki [1] | IC50 [2] | IC50 [3] | IC50 [4] | IC50 [5] | IC50 [6] | IC50 [7]

CC(c1cc2ccccc2s1)N(O)C(N)=O (configuration not stated) [ZILEUTON]
Not Active: IC50 [1] | Ki [1] | IC50 [2] | IC50 [3] | IC50 [4] | IC50 [5] | IC50 [6] | IC50 [7]

O=C1C(CC[S+]([O-])c2ccccc2)C(=O)N(c2ccccc2)N1c1ccccc1 (configuration not stated) [SULFINPYRAZONE]
Not Active: IC50 [1] | Ki [1] | IC50 [2] | IC50 [3] | IC50 [4] | IC50 [5] | IC50 [6] | IC50 [7]

CCN1CCC[C@H]1CNC(=O)c1cc(S(N)(=O)=O)ccc1OC [LEVOSULPIRIDE]
Not Active: IC50 [1] | Ki [1] | IC50 [2] | IC50 [3] | IC50 [4] | IC50 [5] | IC50 [6] | IC50 [7]

CCN(CC)CCNC(=O)c1cc(S(C)(=O)=O)ccc1OC [TIAPRIDE]
Not Active: IC50 [1] | Ki [1] | IC50 [2] | IC50 [3] | IC50 [4] | IC50 [5] | IC50 [6] | IC50 [7]

CCCCOc1cc(CC2CNC(=O)N2)ccc1OC (configuration not stated) [RO-201724]
Not Active: IC50 [1] | Ki [1] | IC50 [2] | IC50 [3] | IC50 [4] | IC50 [5] | IC50 [6] | IC50 [7]
